Here are results for 13 compounds from patent US20120237446A1, “Compounds for binding and imaging amyloid plaques and their use” (BAYER PHARMA AKTIENGESELLSCHAFT, priority 2005, published 2012).

Usually pIC50 stands for the IC50 on a negative log10 scale, so that one unit is a factor of ten. A low value points to a large IC50.

Data set [1] concerns the target T1, human AD brain homogenate (ADH) (Homo sapiens, UniProt P05067).
T1 construct: from tissue; host or cells: frontal cortex (grey and white matter) of AD patients, homogenised in PBS
The data set can be described thus: Competition binding assay with a tritiated amyloid ligand using brain homogenate from AD patients. To be noted: competition with 10 nM tritiated amyloid ligand, 100 μg/mL AD frontal cortex homogenate, PBS 0.1% BSA, 3 h, room temperature. Here is the method: A competition assay with a tritiated amyloid ligand was performed in 96-well plates (Greiner bio-one; Cat. 651201; Lot. 06260130) using brain homogenate from AD patients. Homogenates were prepared by homogenizing (Ultra-Turrax, setting 2, 30 s, 24000 rpm) dissected frontal cortex containing grey matter and white matter from AD patients in phosphate buffered saline (PBS, pH 7.4). The homogenate with a concentration of 100 mg wet tissue/mL was divided into aliquots of 300 μL and stored at −80° C. Varying concentrations of the unlabeled test substances were incubated with 100 μg/mL homogenate and 10 nM of the tritiated ligand in PBS, 0.1% BSA (final volume 200 μL) for 3 h at room temperature. Subsequently the binding mixture was filtered through Whatman GF/B filters (wetted with PBS, 0.1% BSA) using a Filtermate 196 harvester (Packard). Filters were then washed twice with PBS, 0.1% BSA and 40 μL scintillator was added to each well before the bound radioactivity was measured in a TopCount devise (Perkin Elmer). Non-specific binding was assessed by adding an excess of the reference ligand to the reaction mixture. Finally IC50 values were calculated with the help of appropriate analysis software.

Data set [2] is described as follows: Biodistribution (brain uptake and wash-out) in mice. The class given is in vivo, male NMRI mice. Here is the method:
Biodistribution and excretion studies were performed in male NMRI mice (body weight app. 30 g; 3 animals per time point). The animals were kept under normal laboratory conditions at a temperature of 22±2° C. and a dark/light rhythm of 12 h. Food and water were provided ad libitium. During an acclimation period of at least 3 days before the beginning of the study animals were clinically examined to ascertain the absence of abnormal clinical signs.
At 2 min, 5 min, 30 min, 1 h, 4 h post intravenous injection via the tail vein of ca. 185 kBq of the test compound, urine and feces were quantitatively collected. At the same time points, animals were sacrificed by decapitation under isoflurane anaesthesia and organs and tissues of interest were removed for the determination of radioactivity using a gamma-counter. For analysis the decay corrected percentage of the injected dose per tissue weight (% ID/g±standard deviation) was calculated.

The target in data set [3] is T2, amyloid beta plaques (Homo sapiens, UniProt P05067).
T2 construct: Alzheimer's disease patients (AD) with amyloid beta plaques; from tissue; host or cells: fresh frozen and paraffin embedded frontal lobe sections of AD patients
Nature of the data set: Autoradiographical analysis of binding to human brain sections. Particulars: cortex sections of AD patients; controls from HC and FTD patients; blocking with excess of cold compound. Here is the method: FIG. 4 Autoradiographical analysis of binding of compound 28 to brain sections from cortex of Alzheimer's disease patients (AD) with amyloid beta plaques. Control sections without amyloid beta pathology stem from healthy volunteers (HC) and fronto-temporal dementia (FTD) patients. Blocking of specific signals was performed with an excess of cold compound. […] Fresh frozen as well as paraffin embedded sections of the frontal lobe from Alzheimer's dementia patients, frontotemporal dementia patients and age matched controls were used for the study. Frozen sections, sliced at 18 μm thickness on a cryostate (Leica, Germany) and paraffin sections, sliced on a sliding microtom (Leica) at a thickness of 6 μm, were mounted onto glass slides (Superfrost Plus, Fa. Menzel, Braunschweig Germany). Frozen sections were allowed to adhere to the slides for several nights at −20° C. The paraffin sections were deparaffinized using routine histological methods. For binding studies sections were incubated with the labeled test compound at 10-20 Bq/μL diluted in 25 mM Hepes buffer, pH 7.4, 0.1% BSA (200-300 μL/slide) for 1.5 h. in a humidified chamber. For blocking experiments an excess of the unlabeled test substance was added to the incubation mixture. […] The air-dried sections were exposed to imaging plates and signals were detected by a phosphoimager device (Fuji BAS5000).

pIC50: −log10 of the molar value.

T1 sequence (P05067 672-713 limits assumed): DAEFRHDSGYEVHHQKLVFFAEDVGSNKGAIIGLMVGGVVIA
T2 sequence (P05067 672-713 limits assumed): as above

The compound `O=C(C=CNc1ccc(OCF)cc1)c1ccccc1` (mixture of isomers) [Compound 1, (E/Z)-3-{[4-(Fluoromethoxy)phenyl]amino}-1-phenylprop-2-en-1-one] gave a pIC50 in data set [1] of 8.05.

In data set [1], `O=C(C=CNc1ccc(OCCF)cc1)c1ccccc1` (mixture of isomers) [Compound 2, (E/Z)-3-{[4-(2-Fluoroethoxy)phenyl]amino}-1-phenylprop-2-en-1-one] showed a pIC50 of 7.77.

`O=C(C=CNc1ccc(OCCF)cc1)c1ccc(Br)cc1` (mixture of isomers) [Compound 3, (E/Z)-1-(4-Bromophenyl)-3-{[4-(2-fluoroethoxy)phenyl]amino}prop-2-en-1-one] showed a negative logarithm of the IC50 (pIC50) in data set [1] of 7.89.

As for `COc1ccc(NC=CC(=O)c2ccc(F)cc2)cc1` (mixture of isomers) [Compound 5, (E/Z)-1-(4-Fluorophenyl)-3-[(4-methoxyphenyl)amino]prop-2-en-1-one], the pIC50 in data set [1] was 6.40.

On to `CN(C)c1ccc(NC=CC(=O)c2ccc(F)cc2)cc1` (mixture of isomers) [Compound 6, (E/Z)-3-{[4-(Dimethylamino)phenyl]amino}-1-(4-fluorophenyl)prop-2-en-1-one], for which the pIC50 in data set [1] was 8.30.

For the compound `CN(C)c1ccc(NC=CC(=O)c2ccc(F)c(C(F)(F)F)c2)cc1` (mixture of isomers) [Compound 7, (E/Z)-3-{[4-(Dimethylamino)phenyl]amino}-1-[4-fluoro-3-(trifluoromethyl)phenyl]prop-2-en-1-one], the pIC50 in data set [1] was 6.59.

Consider `CN(C)c1ccc(NC=CC(=O)c2ccc(F)nc2)cc1` (mixture of isomers) [Compound 10, (E/Z)-3-{[4-(Dimethylamino)phenyl]amino}-1-(6-fluoropyridin-3-yl)prop-2-en-1-one], for which the pIC50 in data set [1] is 8.40.

As for `COc1ccc(NC=CC(=O)c2ccc(F)nc2)cc1` (mixture of isomers) [Compound 11, (E/Z)-1-(6-Fluoropyridin-3-yl)-3-[(4-methoxyphenyl)amino]prop-2-en-1-one], the negative-log IC50 (pIC50) in data set [1] is 7.55.

Take `O=C(C=CNc1ccc(F)cc1)c1ccccc1` (mixture of isomers) [Compound 12, (E/Z)-3-[(4-Fluorophenyl)amino]-1-phenylprop-2-en-1-one]: the pIC50 in data set [1] is 7.59.

The compound `O=C(C=CNc1ccc(F)c(Br)c1)c1ccccc1` (mixture of isomers) [Compound 13, (E/Z)-3-[(3-Bromo-4-fluorophenyl)amino]-1-phenylprop-2-en-1-one] had a negative-log IC50 (pIC50) in data set [1] of 7.34.

Regarding `O=C(C=CNc1ccc(OCCF)cc1)c1ccc(-c2ccccc2)cc1` (mixture of isomers) [Compound 14, (E/Z)-1-Biphenyl-4-yl-3-{[4-(2-fluoroethoxy)phenyl]amino}prop-2-en-1-one], in data set [1], the negative logarithm of the IC50 (pIC50) was 6.85.

As for `CN(C)c1ccc(NC=CC(=O)c2ccc([18F])nc2)cc1` (mixture of isomers) [Compound 28, (E/Z)-3-{[4-(Dimethylamino)phenyl]amino}-1-(6-[^18F]-fluoropyridin-3-yl)prop-2-en-1-one], in data set [2] (healthy mouse brain, devoid of plaques), the “Brain uptake and elimination of the radioactive background signal from the brain (in words)” value was “advantageous rapid elimination of the radioactive background signal from the brain”. For the same compound, the “Brain uptake at 2 min” value in data set [2] (mice, 2 min after intravenous injection, [18F] signal, healthy brain) is on record as 7.66 % ID/g. Further, the “Brain uptake at 30 min” value in data set [2] (mice, 30 min after intravenous injection, [18F] signal, healthy brain) stood at 0.78 % ID/g. Also, in data set [2] (mice, intravenous injection, healthy brain), the “Brain wash-out ratio [% ID/g at 2 min]/[% ID/g at 30 min]” value is listed as 9.8. In data set [3], the “Autoradiographic binding to brain sections (in words)” value is on record as “plaque-specific signals”.

On to `O=C(/C=C\Nc1ccc(OCCCF)cc1)c1ccccc1` [Compound 4, (Z)-3-{[4-(3-Fluoropropoxy)phenyl]amino}-1-phenylprop-2-en-1-one], for which the pIC50 in data set [1] was 7.74.
